In PubChem BioAssay (NCI):
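Where inhibition never reached the appropriate level, the endpoint shown equals the highest concentration tested. Otherwise, values were interpolated linearly from a five-concentration, 48-hour dose response in 96-well plates. GI50 marks 50% less growth. At the TGI there is no net growth.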

Assays:
Assay in all cases: inhibition of tumour cell growth, NCI panel, 48 h
[1] = test system: DU-145 prostate
[2] = test system: SK-OV-3 ovarian
[3] = test system: PC-3 prostate
[4] = test system: A498 renal
[5] = test system: SK-MEL-2 melanoma
[6] = test system: HCT-15 colon
[7] = test system: COLO 205 colon
[8] = test system: HT29 colon
[9] = test system: SK-MEL-5 melanoma
[10] = test system: RPMI-8226 leukemia
[11] = test system: OVCAR-8 ovarian
[12] = test system: CCRF-CEM leukemia
[13] = test system: EKVX NSCLC
[14] = test system: NCI-H226 lung
[15] = test system: HS 578T breast
[16] = test system: A549 NSCLC
[17] = test system: NCI/ADR-RES ovarian
[18] = test system: NCI-H522 lung
[19] = test system: BT-549 breast
[20] = test system: HCT-116 colon
[21] = test system: SNB-75 CNS
[22] = test system: U251 CNS
[23] = test system: RXF 393 renal
[24] = test system: SNB-19 CNS
[25] = test system: IGROV1 ovarian
[26] = test system: MDA-MB-231 breast
[27] = test system: HOP-92 NSCLC
[28] = test system: K-562 leukemia
[29] = test system: HOP-62 NSCLC

Compound: CC([C@H]1CCC2C3CCC4C[C@@H](NC=O)CC[C@]4(C)C3CC[C@@]21C)N(C)C (some centres not stated)
- GI50 [1]: 4.84 µM
- TGI [1]: 17.5 µM
- GI50 [2]: 3.96 µM
- TGI [2]: 13.5 µM
- GI50 [3]: 2.47 µM
- TGI [3]: 16.4 µM
- GI50 [4]: 2.51 µM
- TGI [4]: 11.9 µM
- GI50 [5]: 5.71 µM
- TGI [5]: 13.8 µM
- GI50 [6]: 1.56 µM
- TGI [6]: 4.66 µM
- GI50 [7]: 1.54 µM
- TGI [7]: 3.11 µM
- GI50 [8]: 0.595 µM
- TGI [8]: 2.42 µM
- GI50 [9]: 1.37 µM
- TGI [9]: 2.74 µM
- GI50 [10]: 1.91 µM
- TGI [10]: 6.6 µM
- GI50 [11]: 6.48 µM
- TGI [11]: > 46.4 µM
- GI50 [12]: 2.31 µM
- TGI [12]: 10.9 µM
- GI50 [13]: 2.64 µM
- TGI [13]: 19.1 µM
- GI50 [14]: 5.47 µM
- TGI [14]: 21 µM
- GI50 [15]: 2.69 µM
- TGI [15]: 12 µM
- GI50 [16]: 3.32 µM
- TGI [16]: 11.5 µM
- GI50 [17]: 6.02 µM
- TGI [17]: 21.4 µM
- GI50 [18]: 4.53 µM
- TGI [18]: 17.6 µM
- GI50 [19]: 6.95 µM
- TGI [19]: 25.1 µM
- GI50 [20]: 1.54 µM
- TGI [20]: 3.22 µM
- GI50 [21]: 4.68 µM
- TGI [21]: 18.2 µM
- GI50 [22]: 2.96 µM
- TGI [22]: 13.8 µM
- GI50 [23]: 1.77 µM
- TGI [23]: 4.15 µM
- GI50 [24]: 7.08 µM
- TGI [24]: 19.5 µM
- GI50 [25]: 4.81 µM
- TGI [25]: 18.2 µM
- GI50 [26]: 2.38 µM
- TGI [26]: 5.89 µM
- GI50 [27]: 1.13 µM
- TGI [27]: 7.61 µM
- GI50 [28]: 0.862 µM
- TGI [28]: 3.18 µM
- GI50 [29]: 2.15 µM
